Laboratory results reported in the supplement of paper PMC5908809.

Key:
DERL-7 (IL-2 2.5 ng/mL) [1] = test: drug sensitivity score (DSS) (DSS units); higher = more sensitive; extreme values may be limits of the assay; conditions: 72 h
[2] = test system: normal primary NK cells, pool 2 (3 donors) (IL-2 2.5 ng/mL); test: as above; conditions: 72 h
IMC-1 (IL-2 20 ng/mL) [3] = test: as above; conditions: 72 h
[4] = test system: normal primary NK cells, pool 1 (3 donors) (IL-2 2.5 ng/mL); test: as above; conditions: 72 h
[5] = test system: normal primary NK cells, pool 1 (3 donors), resting (IL-2 0 ng/mL); test: as above; conditions: 72 h
[6] = test system: normal primary NK cells, pool 3 (3 donors) (IL-2 2.5 ng/mL); test: as above; conditions: 72 h
NKL (IL-2 2.5 ng/mL) [7] = test: as above; conditions: 72 h
YT (IL-2 2.5 ng/mL) [8] = test: as above; conditions: 72 h
NK-YS (IL-2 2.5 ng/mL) [9] = test: as above; conditions: 72 h
SNK-6 (IL-2 2.5 ng/mL) [10] = test: as above; conditions: 72 h
NK-92 (IL-2 2.5 ng/mL) [11] = test: as above; conditions: 72 h
KAI3 (IL-2 2.5 ng/mL) [12] = test: as above; conditions: 72 h
KHYG-1 (IL-2 2.5 ng/mL) [13] = test: as above; conditions: 72 h
[14] = test system: normal NK cells expanded with K562-aAPC; test: as above; conditions: 72 h; IL-2 2.5 ng/mL
Experimental: (§1)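 Drug sensitivity and resistance testing on K562-aAPC-expanded normal NK cells: 5 concentrations (10-fold steps over a 10,000-fold range), 72 h at 37 °C, viability by CellTiter-Glo normalised to DMSO and benzethonium chloride controls; DSS from the fitted curve.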

DERL-7 (IL-2 2.5 ng/mL) [15] = test: percent inhibition of viability; higher = more inhibition; conditions: 72 h
[16] = test system: normal primary NK cells, pool 2 (3 donors) (IL-2 2.5 ng/mL); test: as above; conditions: 72 h
IMC-1 (IL-2 20 ng/mL) [17] = test: as above; conditions: 72 h
[18] = test system: normal primary NK cells, pool 1 (3 donors) (IL-2 2.5 ng/mL); test: as above; conditions: 72 h
[19] = test system: normal primary NK cells, pool 1 (3 donors), resting (IL-2 0 ng/mL); test: as above; conditions: 72 h
[20] = test system: normal primary NK cells, pool 3 (3 donors) (IL-2 2.5 ng/mL); test: as above; conditions: 72 h
NKL (IL-2 2.5 ng/mL) [21] = test: as above; conditions: 72 h
YT (IL-2 2.5 ng/mL) [22] = test: as above; conditions: 72 h
NK-YS (IL-2 2.5 ng/mL) [23] = test: as above; conditions: 72 h
SNK-6 (IL-2 2.5 ng/mL) [24] = test: as above; conditions: 72 h
NK-92 (IL-2 2.5 ng/mL) [25] = test: as above; conditions: 72 h
KAI3 (IL-2 2.5 ng/mL) [26] = test: as above; conditions: 72 h
KHYG-1 (IL-2 2.5 ng/mL) [27] = test: as above; conditions: 72 h
[28] = test system: normal NK cells expanded with K562-aAPC; test: as above; conditions: 72 h, IL-2 2.5 ng/mL
Experimental: as §1

CCc1c(C(=O)C(N)=O)c2c(OCC(=O)O)cccc2n1Cc1ccccc1 [Varespladib] (max concentration tested 10000 nM)
Conditions	drug sensitivity score
DERL-7 (IL-2 2.5 ng/mL) [1]	0
IMC-1 (IL-2 20 ng/mL) [3]	0
KAI3 (IL-2 2.5 ng/mL) [12]	0.68
KHYG-1 (IL-2 2.5 ng/mL) [13]	0
NK-92 (IL-2 2.5 ng/mL) [11]	1.34
NK-YS (IL-2 2.5 ng/mL) [9]	0.22
NKL (IL-2 2.5 ng/mL) [7]	0
SNK-6 (IL-2 2.5 ng/mL) [10]	0
YT (IL-2 2.5 ng/mL) [8]	0.02
[2]	0
[4]	0
[5]	2.05
[6]	0
[14]	0

percent inhibition of viability [%]
Conditions	1 nM	10 nM	100 nM	1000 nM	10000 nM
DERL-7 (IL-2 2.5 ng/mL) [15]	-6.07	2.76	-0.45	-1.82	-5.52
IMC-1 (IL-2 20 ng/mL) [17]	-6.89	-8.73	-5.72	-2.45	-3.95
KAI3 (IL-2 2.5 ng/mL) [26]	-1.85	-2.11	-10.8	-0.18	21.5
KHYG-1 (IL-2 2.5 ng/mL) [27]	-3.76	-11.3	-0.03	8.53	2.8
NK-92 (IL-2 2.5 ng/mL) [25]	-21.4	-19.5	-14.8	-0.75	31.5
NK-YS (IL-2 2.5 ng/mL) [23]	-2.2	-6.12	-3.85	2.05	12.8
NKL (IL-2 2.5 ng/mL) [21]	-9.5	-5.06	-13.2	2.87	-9.38
SNK-6 (IL-2 2.5 ng/mL) [24]	-7.52	-21.8	-13.8	-2.84	6.58
YT (IL-2 2.5 ng/mL) [22]	-8.21	-8.83	-14.4	-11.3	13.2
[16]	-5.85	-4.05	1.84	6.26	5.5
[18]	-5.21	-8.55	9.76	0.64	7.95
[19]	-21.1	-19.8	7.01	11.6	26.9
[20]	-8.31	-9.39	-3.85	-0.09	3.01
[28]	-11.2	-11.6	-12.4	3.91	4.13
